The results in this text go back to patent US8119640B2, “Hedgehog pathway antagonists methods of use” (The Board of Trustees of the Leland Stanford Junior …, priority 2008, dated 2012).

“Also recorded” adds a separate entry of the source.

Data set [1] addresses T1, Gli2 (Mus musculus, UniProt Q0VGT2).
T1 construct: expressed in transfected cells; host or cells: NIH-3T3
Description: Hh pathway activation mediated by overexpression of Gli2. The data set is classed as cell-based. The settings on record: for Inhibition of Hh pathway activity induced by Gli2 overexpression: NIH-3T3 cells, Gli-dependent firefly luciferase; for IC50: NIH-3T3 cells overexpressing Gli2, read-out: IC50 (uM) Gli2 Transfected. The protocol: Hh pathway activation mediated by the overexpression of Gli, Gli2, Gli2αPKA, or Gli2αGSK. […] The cells were co-transfected the following day with 220 ng/well pcDNA-derived Gli1, Gli2, or Gli2 phosphosite mutant expression vectors and 80 ng/well of a 1:15 mixture of phRLTK (Promega) and 8XGIiBS-FL. After transfection, cells were grown to confluence (approximately 48 h). The cell were then incubated for an additional 28-32 h in DMEM containing 0.5% CS, 100 U/mL penicillin, 0.1 mg/mL streptomycin, and either DMSO, 50 μM forskolin, 50 μM LY294002, or various concentrations of the HPIs. Firefly and Renilla luciferase activities were measured using a dual luciferase kit and a Veritas microplate luminometer.

The test system of data set [2] is Math1-cre:SmoM2 cerebellar GNPs. As to the kind of experiment: Math1-cre:SmoM2 cerebellar GNP proliferation. In kind it is cell-based, mice. As to conditions: for Proliferation of SmoM2-expressing GNPs (histone H3 phosphorylation): HPIs 10 μM, cyclopamine 5 μM, 24 h. How it is done:
Analysis of Math1-cre:SmoM2 cerebellar GNP proliferation. To generate Math1-cre:SmoM2 tumors (11), a Math1-cre driver was used to conditionally express an activated Smo (SmoM2) allele. The Gt(ROSA)26Sortm1 (Smo/EYFP)Amc/J) mouse line was obtained from Jackson Laboratory (Bar Harbor, ME). […] Primary cultures from Math1-cre:SmoM2 tumors were established by triturating tumor tissue and plating the dissociated cells onto poly-D-ornithine-coated plates in DMEM-F-12 with N2 supplement, 25 mM KCI, and antibiotics. After culturing the cells for 24 h, they were treated with individual HPIs ([…]) for 24 h. Cell proliferation was then quantified by immunocytochemistry, and the expression of cyclin D1 and Gli1 were assessed by immunoblotting and RT-PCR, respectively. For immunocytochemistry, the primary cultures were fixed in 4% paraformaldehyde for 30 min at room temperature. […] Immunofluorescently stained cultures were imaged using a Nikon Eclipse E600 microscope equipped with a 20×objective. Approximately 30,000 cells were analyzed for each experimental condition. To detect proteins by immunoblotting, non-denaturing lysates were prepared from Math1-cre:SmoM2 cultures using lysate buffer (50 mM HEPES, pH 7.4, containing 150 mM NaCl, 1 mM EDTA, 2.5 mM EGTA, 0.1% Triton X-100, 10% glycerol, and 1 mM DTT), resolved on a 10% SDS-PAGE gel, and transferred onto a PVDF membrane. The membrane was incubated overnight at 4° C. with anti-cyclin D1 (Ab-3, Neomarkers; 1:1,000 dilution) or anti-β-tubulin (T4026, Sigma; 1:5,000 dilution) antibodies. […] For RT-PCR analyses, total RNA from Math1-cre:SmoM2cultures was extracted with TRIzol (Invitrogen) according to the manufacturer's protocol. The RNA was purified further […] with an RNeasy kit (Qiagen), and then reverse-transcribed with an Advantage RT-for-PCR Kit (Clontech) and random hexamer primers. […] Typical PCR conditions were as follows: an initial denaturation at 95° C. for 1 min followed by 28 cycles of denaturation at 94° C. for 45 sec, annealing at 60° C. for 45 sec, extension at 70° C. for 2 min, and a final extension at 72° C. for 7 min. The resulting PCR products were analyzed on 2% agarose gels.

The test system of data set [3] is FLAG-Gli2. Description: Immunostaining of FLAG-Gli2 line: ciliary FLAG-Gli2 and primary cilia. The settings on record: for Ciliary levels of FLAG-Gli2: Shh-EGFP FLAG-Gli2 cells, immunofluorescence. In kind it is cell-based, mouse. The protocol: Immunostaining of FLAG-Gli lines and NIH-3T3 cells. The FLAG-Gli1-expressing or FLAG-Gli2-expressing clonal cell lines were seeded into 24-well plates (80,000 cells/well) containing poly-D-lysine-coated 12-mm glass coverslips. […] The cells were subsequently fixed in 4% paraformaldehyde for 10 min at room temperature followed by treatment with methanol at −20° C. for 2 to 5 min. The cells were washed with PBS, permeabilized with 0.2% Triton X-100 for 2 to 5 min, and then blocked with PBS containing 2% BSA for 3 h at room temperature. The coverslips were then treated with mouse anti-FLAG M2 antibody (Sigma; 1:1,000 dilution in blocking buffer) and rabbit anti-Arl13b (10) (1:1,000 dilution in blocking buffer) for 3 h at room temperature and washed 3×5 min with PBS. The coverslips were incubated next with Alexa Fluor 594-conjugated goat anti-mouse IgG and Alexa Fluor 488-conjugated donkey anti-rabbit IgG antibodies (Invitrogen; 1:1,000 dilutions in blocking buffer) for 2 h at room temperature. After washes with PBS and a 5-min incubation with 4,6-diamidino-2-phenylindole (DAPI), the samples were mounted using Prolong Gold (Invitrogen) and imaged with an upright Leica DM4500B compound microscope. In order to quantify ciliary Gli2 localization, a circular region with diameter equal to the average width of cilia as determined by the anti-Arl13b antibody staining was manually placed at the distal end of each cilium. Regions were transferred from the anti-Arl13b antibody image to the anti-FLAG antibody image, and FLAG staining intensities within those areas were assessed. Between 40 and 80 cilia were analyzed for each condition. To normalize ciliary FLAG-Gli2 levels with respect to compound-dependent changes in total FLAG-Gli2 levels, the absolute average intensities for each condition were divided by the fold change in FLAG-Gli2 levels, as determined by the quantitative immunoblotting described above. Quantification of ciliary FLAG-Gli1 levels was performed in an analogous manner. Since HPI-4 perturbs primary cilia formation, only Arl13b-positive structures that could be clearly identified as cilia were used for Gli protein quanitification in HPI-4-treated cells. To assess cytoplasmic microtubule structures in cells treated with the HPIs, NIH-3T3 cells were cultured on poly-D-lysine-coated 12-mm glass coverslip, treated with the HPIs, and fixed with 4% paraformalehyde as described above. In place of the methanol treatment, the cells were permeabilitized with PBS containing 0.1% Triton X-100 for 1 min. Washing, blocking, and antibody incubation steps were then conducted as before, using mouse anti-<-tubulin (DM1-A, Sigma, 1:2,000 in blocking buffer). Secondary antibody treatments, DAPI staining, mounting, and imaging were then conducted as described above.

T1 sequence (Q0VGT2 whole entry): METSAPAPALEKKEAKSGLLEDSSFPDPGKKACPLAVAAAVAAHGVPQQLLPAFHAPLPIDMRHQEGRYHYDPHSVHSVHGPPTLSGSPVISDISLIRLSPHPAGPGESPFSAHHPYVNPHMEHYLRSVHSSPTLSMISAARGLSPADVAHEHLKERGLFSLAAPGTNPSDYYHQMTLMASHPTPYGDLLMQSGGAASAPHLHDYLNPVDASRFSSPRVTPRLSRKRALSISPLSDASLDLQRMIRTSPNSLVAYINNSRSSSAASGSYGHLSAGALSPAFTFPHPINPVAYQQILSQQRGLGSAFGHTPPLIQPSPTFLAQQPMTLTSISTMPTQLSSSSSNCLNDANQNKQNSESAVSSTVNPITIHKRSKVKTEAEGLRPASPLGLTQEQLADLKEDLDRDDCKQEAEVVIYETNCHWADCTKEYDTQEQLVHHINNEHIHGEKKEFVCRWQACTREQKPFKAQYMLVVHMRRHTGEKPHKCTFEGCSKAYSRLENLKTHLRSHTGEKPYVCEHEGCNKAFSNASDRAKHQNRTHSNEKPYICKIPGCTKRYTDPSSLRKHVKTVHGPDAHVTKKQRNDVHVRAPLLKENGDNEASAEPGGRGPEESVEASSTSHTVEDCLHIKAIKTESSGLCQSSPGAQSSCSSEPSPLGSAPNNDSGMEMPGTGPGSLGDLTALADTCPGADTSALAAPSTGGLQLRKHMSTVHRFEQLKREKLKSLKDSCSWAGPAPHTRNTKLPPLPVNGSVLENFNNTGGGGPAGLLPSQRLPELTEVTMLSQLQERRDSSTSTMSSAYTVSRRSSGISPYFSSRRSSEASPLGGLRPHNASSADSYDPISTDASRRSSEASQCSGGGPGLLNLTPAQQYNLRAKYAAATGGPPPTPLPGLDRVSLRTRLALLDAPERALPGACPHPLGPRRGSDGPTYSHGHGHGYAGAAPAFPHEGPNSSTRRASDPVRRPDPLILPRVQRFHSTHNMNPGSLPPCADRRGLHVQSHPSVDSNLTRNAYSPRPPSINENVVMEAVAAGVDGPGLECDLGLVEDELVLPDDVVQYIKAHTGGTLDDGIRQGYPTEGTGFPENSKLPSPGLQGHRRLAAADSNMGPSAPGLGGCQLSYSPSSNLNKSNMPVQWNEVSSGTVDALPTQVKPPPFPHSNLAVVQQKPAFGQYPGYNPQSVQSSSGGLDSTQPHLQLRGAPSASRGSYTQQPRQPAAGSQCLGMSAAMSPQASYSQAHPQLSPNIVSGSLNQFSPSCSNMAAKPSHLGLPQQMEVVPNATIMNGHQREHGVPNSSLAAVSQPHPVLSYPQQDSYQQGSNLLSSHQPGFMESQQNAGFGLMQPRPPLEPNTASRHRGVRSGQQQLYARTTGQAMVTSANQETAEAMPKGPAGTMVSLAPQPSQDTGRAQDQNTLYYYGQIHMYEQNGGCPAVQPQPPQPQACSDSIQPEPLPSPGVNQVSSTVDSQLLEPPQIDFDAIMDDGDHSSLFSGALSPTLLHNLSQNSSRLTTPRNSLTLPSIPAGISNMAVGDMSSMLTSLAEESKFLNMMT

As to `COCCOC(=O)C1=C(C)NC2=C(C(=O)CC(c3ccccc3OC)C2)C1c1cccc(O)c1` (mixture of isomers) [Compound 8, 4-(3-Hydroxy-phenyl)-7-(2-methoxy-phenyl)-2-methyl-5-oxo-1,4,5,6,7,8-hexahydro-quinoline-3-carboxylic acid 2-methoxy-ethyl ester], the “Inhibition of Hh pathway activity induced by Gli2 overexpression” value (shortened to “Inhibition”) in data set [1] (listed as HPI-1) is “inhibit Gli-induced firefly luciferase expression in a dose-dependent manner; also recorded: inhibits”. Further, in data set [2], the “Cellular levels of cyclin D1 protein and Gli1 transcripts in GNPs” value was “reduced cellular levels of cyclin D1 protein and Gli1 transcripts”; the “Proliferation of SmoM2-expressing GNPs (histone H3 phosphorylation)” value (“Proliferation of SmoM2-expressing GNPs” for short) is “significantly inhibited the proliferation”.
In general, IC50 refers to the concentration that gives 50% inhibition. Regarding `CCN1CCCC1CNC(=O)C1CCN(c2nc3c(C)cc(C)cc3s2)CC1` (centres unmarked) [Compound 7], in data set [1], the “Toxicity noted in Gli2 Transfected column” value is “(Toxic at 30)” and the IC50 was > 10 µM.
As to `O=C(Nc1nnc(S(=O)(=O)N2CCCCC2)s1)c1cccc(Br)c1` [Compound 15], the IC50 in data set [1] amounted to 25 µM.
For `CCOC(=O)c1cc2c(=O)n3ccccc3nc2n(C(C)C)c1=NC(=O)c1cc(OC)cc(OC)c1` [Compound 6], the IC50 in data set [1] came to 1.5 µM.
As to `Cc1cc(/C=c2\sc3nc4ccccc4n3c2=O)c(C)n1C(C)C` [Compound 3], the half-maximal inhibitory concentration (IC50) in data set [1] is 2 µM.
In the case of `O=C(Nc1cccc2ccccc12)OC[C@@H]1CCCN2CCCC[C@H]12` [Compound 4], the IC50 in data set [1] was > 30 µM.
Consider `OCCNc1nc(N2CCN(c3ccccc3)CC2)nc2ccccc12` [Compound 11], for which the half-maximal inhibitory concentration (IC50) in data set [1] is > 30 µM. Further, the “Inhibition” value in data set [1] (listed as HPI-3) was “no significant activity; also recorded: inactive”. In data set [3], the “Ciliary levels of FLAG-Gli2” value is reported as “increased ciliary levels of FLAG-Gli2”. Besides, in data set [2], the “Proliferation of SmoM2-expressing GNPs” value is “did not block GNP proliferation”.
Regarding `CC(C)(C)N(CCNS(=O)(=O)c1ccc(-c2cc(C(F)(F)F)no2)s1)Cc1ccco1` [Compound 12], the 50% inhibitory concentration (IC50) in data set [1] was found to be 15 µM.
Same read-out and setting: the result for `CN1CCN(C2Cc3ccccc3Sc3ccccc32)CC1` (centres unmarked) [Compound 13] reads > 30 µM; that for `N#Cc1cc2c(nc1SCC(=O)Nc1nc3ccccc3s1)CCC2` [Compound 1], 3 µM.
As to `CCOc1ccc2ncc(C(=O)c3ccc(C)cc3)c(N3CCCC3)c2c1` [Compound 14], the IC50 in data set [1] came to 10 µM.
As for `N#CC(C(=O)c1ccc(Cl)cc1Cl)=C1NC(=O)c2ccccc2N1` [Compound 18], in data set [1], the IC50 is > 10 µM. Moreover, the “Inhibition” value in data set [1] (listed as HPI-4) was “no significant activity; also recorded: inactive”. Moreover, in data set [3] (30 μM HPI-4), the Primary cilia formation result is given as “truncated primary cilia; also recorded: inhibits primary cilia formation”. The “Ciliary levels of FLAG-Gli2” value in data set [3] is “increased ciliary levels of FLAG-Gli2”. Further, in data set [2], the “Cellular levels of cyclin D1 protein and Gli1 transcripts in GNPs” value was “reduced cellular levels of cyclin D1 protein and Gli1 transcripts”; the “Proliferation of SmoM2-expressing GNPs” value is listed as “significantly inhibited the proliferation”.
Consider `CCC(C)NS(=O)(=O)c1ccc(Cc2ccc(S(=O)(=O)NC(C)CC)cc2)cc1` (centres unmarked) [Compound 5], for which the 50% inhibitory concentration (IC50) in data set [1] came out at 10 µM.
With `COc1ccc(OC)c2c1cc1n2CC(C)(C(=O)NC2CCCCCCC2)N(CCN(C)C)C1=O` (centres unmarked) [Compound 17], the IC50 in data set [1] is 6 µM. Further, in data set [1] (listed as HPI-2), the “Inhibition” value was “preferentially inhibits Gli2”. In addition, in data set [3], the “Ciliary levels of FLAG-Gli2” value is “increased ciliary levels of FLAG-Gli2”. In data set [2], the “Proliferation of SmoM2-expressing GNPs” value is recorded as “did not block GNP proliferation”.
For `CCOc1ccc(CCNc2cnnc3c(Cl)cccc23)cc1OCC` [Compound 16], the IC50 in data set [1] was > 30 µM.
For `CCCCNC(=N)C(C)c1ccc(CC(C)C)cc1` (centres unmarked) [Compound 2], the IC50 in data set [1] is > 30 µM.
Still for that read-out and setting: the figure for `O=S(=O)(Nc1cc(Cl)c(Cl)cc1Cl)c1ccc(F)cc1` [Compound 10] is 4 µM; for `CCOC(=O)c1cn(-c2ccccc2)nc1-c1ccc(OC)c(OC)c1` [Compound 9] it is > 30 µM.
